Assay results taken from patent publication US9957254B2, “Cyclohexen-1-yl-pyridin-2-yl-1h-pyrazole-4-carboxylic acid derivatives and the use thereof as soluble guanylate cyclase activators” (Novartis AG, priority 2014, dated 2018).

Biological target: T1, soluble guanylate cyclase (Homo sapiens, UniProt Q02153)
T1 construct: expressed in transfected cells
Test: CHO cellular assay (cGMP production, Cisbio cGMP HTRF)
Format: cell-based
Details: CHO K1 cells overexpressing human GUCYA3/GUCYB3 (clone 8E10), 1 mM IBMX, 20 uM ODQ, 1 h room temperature, listed 0.5 nM means actual EC50 ≤0.5 nM (quantification limit)
From the text: Chinese hamster ovary (CHO) cells overexpressing soluble guanylate cyclase were generated to test the effect of sGC activators in a cellular context. Human cDNAs for GUCYA3 (RefSeq: NM_000856.3) and GUCYB3 (RefSeq: NM_000857.1) were amplified by PCR from a HUVEC (Human Umbilical Vein Endothelial Cells) cDNA library and cloned into mammalian expression vectors. CHO K1 cells (ATCC CCL-61) were transfected using Lipofectamine 2000 following manufacturer's instructions and stably expressing clones were identified by antibiotic selection. CHO GUCY clone 8E10 was used for subsequent experiments.
Cells were seeded at a density of 3000 cells/well in white 384-well proxyplates (Perkin Elmer) and incubated overnight, then the medium was removed and cells were washed with assay buffer (HBSS, 0.1% BSA, 1 mM IBMX, 20 uM ODQ). sGC activators were serially diluted in DMSO, then diluted in assay buffer prior to adding to cells (10 ul/well, final DMSO concentration 0.5%). Cells were incubated with compounds for 1 h room temperature, then assayed for cGMP production using Cisbio cGMP HTRF kit (62GM2PEC) according to manufacturer's instructions.
The EC50s are calculated based on the amount of cGMP interpolated from the standard curve, using a 4-parameter sigmoidal dose-response.
Compounds of invention are active on sGC activation. Data on Table 1 collected using the assay of Biological Example 1. The minimum EC50 quantification limit of the assay is 0.5 nM, therefore any compound listed as having an EC50 value of 0.5 nM has a actual EC50 of ≤0.5 nM.

T1 sequence (Q02108 whole entry partner): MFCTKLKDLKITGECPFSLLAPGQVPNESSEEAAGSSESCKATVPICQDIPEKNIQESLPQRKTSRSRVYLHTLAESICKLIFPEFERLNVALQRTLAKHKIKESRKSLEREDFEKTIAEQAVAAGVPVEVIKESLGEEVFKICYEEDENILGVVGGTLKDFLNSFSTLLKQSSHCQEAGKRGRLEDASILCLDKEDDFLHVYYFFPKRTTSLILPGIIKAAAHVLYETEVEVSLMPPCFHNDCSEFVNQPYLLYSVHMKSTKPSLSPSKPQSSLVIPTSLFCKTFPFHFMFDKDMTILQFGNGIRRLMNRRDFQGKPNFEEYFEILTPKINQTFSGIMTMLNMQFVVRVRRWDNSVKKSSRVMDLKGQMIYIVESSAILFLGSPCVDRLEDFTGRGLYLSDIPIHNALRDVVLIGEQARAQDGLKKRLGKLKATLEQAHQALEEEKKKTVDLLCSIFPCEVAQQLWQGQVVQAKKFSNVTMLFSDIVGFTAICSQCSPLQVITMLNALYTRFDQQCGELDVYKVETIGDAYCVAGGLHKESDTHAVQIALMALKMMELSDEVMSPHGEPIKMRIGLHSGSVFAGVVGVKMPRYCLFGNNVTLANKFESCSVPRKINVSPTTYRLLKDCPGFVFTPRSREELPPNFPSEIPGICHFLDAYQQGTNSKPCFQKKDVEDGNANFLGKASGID
T1 sequence (Q02153 whole entry): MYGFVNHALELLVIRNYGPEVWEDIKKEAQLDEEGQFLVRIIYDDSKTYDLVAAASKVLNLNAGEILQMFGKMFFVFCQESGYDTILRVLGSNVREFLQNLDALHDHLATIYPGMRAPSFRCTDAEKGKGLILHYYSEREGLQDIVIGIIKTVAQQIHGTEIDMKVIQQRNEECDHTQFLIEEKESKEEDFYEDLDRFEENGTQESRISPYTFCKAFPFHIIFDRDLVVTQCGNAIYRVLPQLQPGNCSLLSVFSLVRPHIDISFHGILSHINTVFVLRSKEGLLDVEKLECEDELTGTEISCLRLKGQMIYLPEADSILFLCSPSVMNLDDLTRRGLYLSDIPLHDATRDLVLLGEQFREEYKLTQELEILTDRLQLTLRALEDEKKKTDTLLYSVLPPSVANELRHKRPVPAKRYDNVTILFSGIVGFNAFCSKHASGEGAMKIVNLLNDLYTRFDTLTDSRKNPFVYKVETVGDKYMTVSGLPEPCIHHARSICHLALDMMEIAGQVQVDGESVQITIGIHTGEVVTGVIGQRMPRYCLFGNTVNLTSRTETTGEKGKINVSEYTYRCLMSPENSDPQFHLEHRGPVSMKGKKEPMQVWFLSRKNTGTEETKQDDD

Compound | EC50
Cc1cc(C2CCN(C(=O)C3CC3)CC2)ccc1OCC1=C(c2cccc(-n3ncc(C(=O)O)c3C(F)(F)F)c2)CC(C)CC1 (racemic) [Example 28, (±)-1-(6′-((4-(1-(Cyclopropanecarbonyl)piperidin-4-yl)-2-methylphenoxy)methyl)-3′-methyl-2′,3′,4′,5′-tetrahydro-[1,1-biphenyl]-3-yl)-5-(trifluoromethyl)-1H-pyrazole-4-carboxylic acid] | 22 nM
CC1CCCC(c2cccc(-n3ncc(C(=O)O)c3C(F)(F)F)n2)=C1COc1ccc2c(c1)CCN(Cc1ccccn1)C2 (racemic) [Example 29-1, (±)-1-(6-(3-Methyl-2-(((2-(pyridin-2-ylmethyl)-1,2,3,4-tetrahydroisoquinolin-6-yl)oxy)methyl)cyclohex-1-en-1-yl)pyridin-2-yl)-5-(trifluoromethyl)-1H-pyrazole-4-carboxylic acid] | 3.9 nM
O=C(O)c1cnn(-c2cccc(C3=C(COc4ccc([C@H]5CCN(C(=O)C6CC6)C[C@@H]5O)cc4)CCCC3)n2)c1C(F)(F)F (racemic) [Example 29-2, (±)-1-(6-(2-((4-((3,4-trans)-1-(cyclopropanecarbonyl)-3-hydroxypiperidin-4-yl)phenoxy)methyl)cyclohex-1-en-1-yl)pyridin-2-yl)-5-(trifluoromethyl)-1H-pyrazole-4-carboxylic acid] | 420 nM
Cc1cc(C2CCN(C(=O)C3CC3)CC2)ccc1OCC1=C(c2cccc(-n3ncc(C(=O)O)c3C(F)(F)F)n2)CC(C)CC1 (single isomer, unassigned; (+)) [Example 12 (+), (+)-1-(6-(2-((4-(1-(cyclopropanecarbonyl)piperidin-4-yl)-2-methylphenoxy)methyl)-5-methylcyclohex-1-en-1-yl)pyridin-2-yl)-5-(trifluoromethyl)-1H-pyrazole-4-carboxylic acid] | ≤ 0.5 nM
CCc1cc(OCC2=C(c3cccc(-n4ncc(C(=O)O)c4C(F)(F)F)n3)CCCC2C)ccc1C1CCN(C(=O)C2CC2)CC1 (single isomer, unassigned; (+)) [Example 13a, (+)-1-(6-(2-((4-(1-(Cyclopropanecarbonyl)piperidin-4-yl)-3-ethylphenoxy)methyl)-3-methylcyclohex-1-en-1-yl)pyridin-2-yl)-5-(trifluoromethyl)-1H-pyrazole-4-carboxylic acid] | 1 nM
Cc1cc(C2CCN(C(=O)C3CC3)CC2)ccc1OCC1=C(c2cccc(-n3ncc(C(=O)O)c3C(F)(F)F)n2)CCCC1C (single isomer, unassigned; (+)) [Example 15a, (+)-1-(6-(2-((4-(1-(cyclopropanecarbonyl)piperidin-4-yl)-2-methylphenoxy)methyl)-3-methylcyclohex-1-en-1-yl)pyridin-2-yl)-5-(trifluoromethyl)-1H-pyrazole-4-carboxylic acid] | ≤ 0.5 nM
CCc1cc(OCC2=C(c3cccc(-n4ncc(C(=O)O)c4C)n3)CCCC2C)ccc1C1CCN(C(=O)C2CC2)CC1 (single isomer, unassigned; (+)) [Example 16a, (+)-1-(6-(2-((4-(1-(Cyclopropanecarbonyl)piperidin-4-yl)-3-ethylphenoxy)methyl)-3-methylcyclohex-1-en-1-yl)pyridin-2-yl)-5-methyl-1H-pyrazole-4-carboxylic acid] | ≤ 0.5 nM
CCc1cc(OCC2=C(c3cccc(-n4ncc(C(=O)O)c4CC)n3)CCCC2C)ccc1C1CCN(C(=O)C2CC2)CC1 (single isomer, unassigned; (+)) [Example 17a, (+)-1-(6-(2-((4-(1-(Cyclopropanecarbonyl)piperidin-4-yl)-3-ethylphenoxy)methyl)-3-methylcyclohex-1-en-1-yl)pyridin-2-yl)-5-ethyl-1H-pyrazole-4-carboxylic acid] | ≤ 0.5 nM
CCc1cc(OCC2=C(c3cccc(-n4ncc(C(=O)O)c4C(F)F)n3)CCCC2C)ccc1C1CCN(C(=O)C2CC2)CC1 (single isomer, unassigned; (+)) [Example 20(b) (+), (+)-1-(6-(2-((4-(1-(cyclopropanecarbonyl)piperidin-4-yl)-3-ethylphenoxy)methyl)-3-methylcyclohex-1-en-1-yl)pyridin-2-yl)-5-(difluoromethyl)-1H-pyrazole-4-carboxylic acid] | ≤ 0.5 nM
CCc1cc(OCC2=C(c3cccc(-n4ncc(C(=O)O)c4C(F)(F)F)n3)CCC2C)ccc1C1CCN(C(=O)C2CC2)CC1 (single isomer, unassigned; (+)) [Example 22(b) (+), (+)-1-(6-(2-((4-(1-(cyclopropanecarbonyl)piperidin-4-yl)-3-ethylphenoxy)methyl)-3-methylcyclopent-1-en-1-yl)pyridin-2-yl)-5-(trifluoromethyl)-1H-pyrazole-4-carboxylic acid] | 1 nM
Cc1cc(C2CCN(C(=O)C3CC3)CC2)ccc1OCC1=C(c2cccc(-n3ncc(C(=O)O)c3C(F)(F)F)n2)CC(C)CC1 (single isomer, unassigned; (-)) [Example 12 (−), (−)-1-(6-(2-((4-(1-(cyclopropanecarbonyl)piperidin-4-yl)-2-methylphenoxy)methyl)-5-methylcyclohex-1-en-1-yl)pyridin-2-yl)-5-(trifluoromethyl)-1H-pyrazole-4-carboxylic acid] | ≤ 0.5 nM
CCc1cc(OCC2=C(c3cccc(-n4ncc(C(=O)O)c4C(F)(F)F)n3)CCCC2C)ccc1C1CCN(C(=O)C2CC2)CC1 (single isomer, unassigned; (-)) [Example 13b, (−)-1-(6-(2-((4-(1-(Cyclopropanecarbonyl)piperidin-4-yl)-3-ethylphenoxy)methyl)-3-methylcyclohex-1-en-1-yl)pyridin-2-yl)-5-(trifluoromethyl)-1H-pyrazole-4-carboxylic acid] | 9 nM
Cc1cc(C2CCN(C(=O)C3CC3)CC2)ccc1OCC1=C(c2cccc(-n3ncc(C(=O)O)c3C(F)(F)F)n2)CCCC1C (single isomer, unassigned; (-)) [Example 15b, (−)-1-(6-(2-((4-(1-(Cyclopropanecarbonyl)piperidin-4-yl)-2-methylphenoxy)methyl)-3-methylcyclohex-1-en-1-yl)pyridin-2-yl)-5-(trifluoromethyl)-1H-pyrazole-4-carboxylic acid] | 1 nM
CCc1cc(OCC2=C(c3cccc(-n4ncc(C(=O)O)c4C)n3)CCCC2C)ccc1C1CCN(C(=O)C2CC2)CC1 (single isomer, unassigned; (-)) [Example 16b, (−)-1-(6-(2-((4-(1-(Cyclopropanecarbonyl)piperidin-4-yl)-3-ethylphenoxy)methyl)-3-methylcyclohex-1-en-1-yl)pyridin-2-yl)-5-methyl-1H-pyrazole-4-carboxylic acid] | 3 nM
CCc1cc(OCC2=C(c3cccc(-n4ncc(C(=O)O)c4CC)n3)CCCC2C)ccc1C1CCN(C(=O)C2CC2)CC1 (single isomer, unassigned; (-)) [Example 17b, (−)-1-(6-(2-((4-(1-(Cyclopropanecarbonyl)piperidin-4-yl)-3-ethylphenoxy)methyl)-3-methylcyclohex-1-en-1-yl)pyridin-2-yl)-5-ethyl-1H-pyrazole-4-carboxylic acid] | 1.4 nM
